Columns and labels:
Type in all cases: cell-based
[1] = tested on: Human d7 Cultured Dendritic Cells; test: Flow cytometry phenotype analysis of human d7 cultured dendritic cells after 24 h stimulation; details: for HLA-DR MFI: 7 day DCs, 24 h stimulation
[2] = tested on: murine bone marrow derived DCs + D011.10 T cells; test: APC function of ova-pulsed, lipid A potentiated murine DCs co-cultured with D011.10 T cells (cytokine ELISA)
From the text: These antigen pulsed, lipid A potentiated cells were then washed thoroughly and titered against ova-specific T cell effector cells in vitro at an APC: T cell ratio titration of 1:1 out to as high as 1:512. The effector T cells in this in vitro assay were the antigen naive, but antigen (ova) specific, MHC restricted I-A^d splenic T cells from transgenic D011.10 mice.
D011.10 TCR-transgenic mice were used in these experiments as donors of antigen specific naive T cells. In their germline DNA these mice contain rearranged TCR-Vα and -Vβ genes that encode a T cell receptor (TCR) specific for the ovalbumin peptide 323-339 bound to IA^d (Balb/c) Class II MHC molecules. The transgenic ova peptide specific TCR can be detected with the KJ1-26 monoclonal antibody (mAb) that binds only to this particular TCR heterodimer. These cells provide a ready source of “normal” antigen (ova)-specific effector T cells. Effective antigen-mediated APC stimulation of those T cells is generally measured by ELISA quantitation of IL-2 or IFN-γ in the culture supernatants of DC+D011.10 T cells after 24-48 hours of incubation.
In one experiment, murine bone marrow derived DCs (6 day cultures) were pulsed with ova (50 μg/ml-5×10^5 cells/ml) and then potentiated overnight with LPS(R595), MPL® immunostimulant-S, RC-527, RC-529 or RC-544 prior to being cultured together with naive D011.10 effector T cells (FIGS. 1-7). The APC function of these DCs as measured by their ability to stimulate IL-2, IFN-γ IL-12 (p70) and IL-12 (p40) secretion in the DC+D011.10 co-culture systems was analyzed. All of the data shown in FIGS. 1-7 was developed from DCs maintained in lipid A induction cultures for either 15 or 38 hours prior to use in the T cell assay.

[3] = tested on: 6-7 day cultured human dendritic cells; test: ELISA of cytokines (IL-12 p40, IL-12 p70, TNF-α) in 22 h induction supernatants of cultured human dendritic cells; details: for IL-12 p40 / IL-12 p70 / TNF-α: 22 Hrs
From the text: Recent articles have described how human dendritic cells can be derived in vitro from CD14 positive monocyte precursors in peripheral blood. A “buffy coat” preparation can now be commonly obtained from a unit of normal human peripheral blood from a blood bank on request. The leukocyte fraction was harvested from this buffy coat preparation using standard ficoll centrifugation techniques. Subsequently, the leukocyte fraction was labeled with anti-CD 14 antibody coupled to magnetic microbeads. This preparation was then passed over a magnet (Miltanyi Biotech) and CD14 positive monocytes were collected. These CD14 positive monocyte precursors were then cultured for 5-7 days in vitro (5×10^5 cells/ml) with GM-CSF (20 ng/ml) for the duration of the culture. […] After the 24 hour in vitro stimulation culture, cells were washed twice and stained with a panel of monoclonal antibodies specific for different cell surface activation and co-receptor molecules found on mature, activated DCs.
Supernatants from DCs stimulated with LPS, MPL® immunostimulant-S, RC-527, RC-529, and RC-544 were collected and tested by ELISA analysis for cytokines.

[4] = tested on: cultured human DCs + autologous T cells
[5] = Exp. 091698, 24 h, LPS 10 ng/ml, others 100 ng/ml
[6] = Exp. 092398, 24 h, LPS 10 ng/ml, others 100 ng/ml
[7] = Exp. 093098, 24 h, LPS 10 ng/ml, others 100 ng/ml
[8] = Exp. # 092398, Day 7, LPS 10 ng/ml, others 100 ng/ml
[9] = Exp. # 093098, LPS 10 ng/ml, others 100 ng/ml

CCCCCCCCCCCC(=O)OC(CCCCCCCCCCC)CC(=O)NC(CO)COC1OC(CO)C(OP(=O)(O)O)C(OC(=O)CC(CCCCCCCCCCC)OC(=O)CCCCCCCCCCC)C1NC(=O)CC(CCCCCCCCCCC)OC(=O)CCCCCCCCCCC (centres unmarked) [RC-544]
CD 1a % positive cells [1, 5]: 11.6%
CD 1a MFI [1, 5]: 7.38
CD 4 % positive cells [1, 5]: 70.6%
CD 4 MFI [1, 5]: 2.17
CD 14 % positive cells [1, 5]: 7.6%
CD 35 % positive cells [1, 5]: 52.5%
CD 35 MFI [1, 5]: 2.85
CD 40 MFI [1, 5]: 31.8
CD 44 MFI [1, 5]: 242
CD 54 MFI [1, 5]: 26.1
CD 62 L % positive cells [1, 5]: 11.6%
CD 69 % positive cells [1, 5]: 10.8%
CD 80 % positive cells [1, 5]: 99.2%
CD 80 MFI [1, 5]: 5.99
CD 83 % positive cells [1, 5]: 94.3%
CD 83 MFI [1, 5]: 2.72
CD 86 % positive cells [1, 5]: 99.7%
CD 86 MFI [1, 5]: 15.3
CD 95 % positive cells [1, 5]: 86.0%
CD 95 MFI [1, 5]: 1.31
HLA-DR MFI ([1]; Exp. 091698, LPS 10 ng/ml, others 100 ng/ml): 544-S 60.8
CD 1a % positive cells [1, 6]: 75.6%
CD 1a MFI [1, 6]: 4.44
CD 4 % positive cells [1, 6]: 75.7%
CD 4 MFI [1, 6]: 2.80
CD 14 % positive cells [1, 6]: 5.0%
CD 35 % positive cells [1, 6]: 59.1%
CD 35 MFI [1, 6]: 2.98
CD 40 MFI [1, 6]: 33.7
CD 54 MFI [1, 6]: 32.7
CD 62 L % positive cells [1, 6]: 7.1%
CD 69 % positive cells [1, 6]: 10.1%
CD 80 % positive cells [1, 6]: 99.1%
CD 80 MFI [1, 6]: 7.56
CD 83 % positive cells [1, 6]: 97.1%
CD 83 MFI [1, 6]: 3.52
CD 86 % positive cells [1, 6]: 99.9%
CD 86 MFI [1, 6]: 26.4
CD 95 % positive cells [1, 6]: 90.6%
CD 95 MFI [1, 6]: 1.40
αC5aR + GAR Alexa % positive cells [1, 6]: 45.9%
CD 44 MFI ([1]; Exp. 092398, 24 h, LPS 10 ng/ml, others 100 ng/ml, values printed with a trailing +): 426+
GAR-Alexa % positive cells ([1]; Exp. 092398, 24 h, secondary reagent staining, LPS 10 ng/ml, others 100 ng/ml): 3.9%
HLA-DR MFI ([1]; Exp. 092398, LPS 10 ng/ml, others 100 ng/ml): 155.2
CCR 6 % positive cells [1, 7]: 5.8%
CD 1a % positive cells [1, 7]: 78.1%
CD 1a MFI [1, 7]: 6.06
CD 3 % positive cells [1, 7]: 26.8%
CD 3 MFI [1, 7]: 3.86
CD 4 % positive cells [1, 7]: 79.4%
CD 4 MFI [1, 7]: 3.11
CD 11c % positive cells [1, 7]: 91.0%
CD 11c MFI [1, 7]: 6.23
CD 14 % positive cells [1, 7]: 4.1%
CD 40 MFI [1, 7]: 30.4
CD 54 MFI [1, 7]: 36.8
CD 62 L % positive cells [1, 7]: 4.0%
CD 80 % positive cells [1, 7]: 99.0%
CD 80 MFI [1, 7]: 10.9
CD 83 % positive cells [1, 7]: 92.5%
CD 83 MFI [1, 7]: 3.43
CD 86 % positive cells [1, 7]: 99.8%
CD 86 MFI [1, 7]: 26.3
CD 123 % positive cells [1, 7]: 48.0%
CD 123 MFI [1, 7]: 1.85
αC5aR + Alexa 488 % positive cells [1, 7]: 43.3%
αC5aR + Alexa 488 MFI [1, 7]: 9.41
HLA-DR MFI ([1]; Exp. 093098, LPS 10 ng/ml, others 100 ng/ml): 134.3
stimulating the expression of HLA-DR and co-stimulatory molecules (in words) ([1]; RC-529 compared with RC-544, three experiments): very comparable effects
CD40 and CD83 expression (in words) ([1]; RC-544 compared with RC-529): slightly higher levels of CD40 and CD83 expression than did RC-529
IL-2 secretion (in words) ([2]; DCs prestimulated 15 hours, all T cell:APC ratios, FIG. 1): comparable in their ability to stimulate IL-2 secretion
IL-12 (p70) in DC+D011.10 co-cultures (in words) ([2]; FIG. 5): overall weaker in their effect than LPS and RC-527
IL-12 (p70) at T cell:APC ratio 16:1 (in words) ([2]; FIG. 6): substantially higher stimulation effect than that induced by RC-529
release of IL-12 (p40) homodimer in DC+D011.10 co-cultures (in words) ([2]; FIG. 7): weaker in their effect than LPS and RC-527
IL-12 p40 ([3]; Exp. # 091698, LPS 10 ng/ml, others 100 ng/ml): 42,500 pg/mL/5 × 10^5 Cells
IL-12 p70 ([3]; Exp. # 092398 (second line, Day7), LPS 10 ng/ml, others 100 ng/ml): 175.2 pg/ml/5 × 10^5 Cells
IL-12 p40 [3, 8]: 80,500 pg/mL/5 × 10^5 Cells
TNF-α [3, 8]: 5.650 pg/mL/5 × 10^5 Cells
IL-12 p70 ([3]; Exp. # 092398 as printed (first line of section), LPS 10 ng/ml, others 100 ng/ml): 8.8 pg/ml/5 × 10^5 Cells
IL-12 p70 ([3]; Exp. # 092398 as printed (third line of section), LPS 10 ng/ml, others 100 ng/ml): 55.7 pg/ml/5 × 10^5 Cells
IL-12 p40 [3, 9]: 62,000 pg/mL/5 × 10^5 Cells
TNF-α [3, 9]: 880 pg/mL/5 × 10^5 Cells
IL-12 (p40) expression (in words) ([3]; all three experiments, LPS 10 ng/ml, others 100 ng/ml): also stimulated IL-12 (p40) responses
IL-12 (p70) (in words) ([3]; the one donor in which LPS and MPL-S gave a significant amount): high levels of IL-12 (p70)
TNF-α secretion (in words) ([3]; three donors): moderately lower than the effect due to RC-527
T cell proliferation / DC activation, CPM 3H-thymidine response (in words) [4]: highest levels of DC activation compared to MPL® immunostimulant

Source: patent US20040033213A1, “Methods of modulating dendritic cells using adjuvants” (Corixa Corporation, priority 2002, published 2004)
